ChEMBL document CHEMBL1201862, “PubChem BioAssay data set” (2004)
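Grown in 96-well plates, cells were treated for 48 hours with each compound at five concentrations. Insufficient inhibition: endpoint recorded as highest concentration tested. Abbreviation: GI50, concentration required for 50% inhibition of growth.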 Active and inactive are the calls of the source. Cut-off read from the data, not from the text of the source: active = GI50 up to about 1.1 µM and inactive = higher.

Assays:
Assay in all cases: NCI tumour cell line growth inhibition, 48 h
OVCAR-3 = tested on: OVCAR-3
Hs-578T = tested on: Hs-578T
MDA-MB-231 = tested on: MDA-MB-231
KM12 = tested on: KM12
MDA-MB-435 = tested on: MDA-MB-435
OVCAR-4 = tested on: OVCAR-4
PC-3 = tested on: PC-3
HCT-116 = tested on: HCT-116
EKVX = tested on: EKVX
T47D = tested on: T47D
UACC-257 = tested on: UACC-257
MCF7 = tested on: MCF7
RXF 393 = tested on: RXF 393
COLO 205 = tested on: COLO 205
SW-620 = tested on: SW-620
SF-268 = tested on: SF-268
OVCAR-8 = tested on: OVCAR-8
MOLT-4 = tested on: MOLT-4
IGROV-1 = tested on: IGROV-1
M19-MEL = tested on: M19-MEL

SMILES	GI50 (OVCAR-3)	GI50 (Hs-578T)	GI50 (MDA-MB-231)	GI50 (KM12)	GI50 (MDA-MB-435)	GI50 (OVCAR-4)	GI50 (PC-3)	GI50 (HCT-116)	GI50 (EKVX)	GI50 (T47D)	GI50 (UACC-257)	GI50 (MCF7)	GI50 (RXF 393)	GI50 (COLO 205)	GI50 (SW-620)	GI50 (SF-268)	GI50 (OVCAR-8)	GI50 (MOLT-4)	GI50 (IGROV-1)	GI50 (M19-MEL)
Cn1c(=O)c2c(nc3n(C)c(=O)c4ccccc4n23)n(C)c1=O	> 100 µM (inactive)	59.3 µM (inactive)	> 100 µM (inactive)	53.6 µM (inactive)	> 100 µM (inactive)	> 100 µM (inactive)	> 95.3 µM (inactive)	71 µM (inactive)	> 100 µM (inactive)	> 71 µM (inactive)	> 100 µM (inactive)	17.9 µM (inactive)	> 61.8 µM (inactive)	> 93.5 µM (inactive)	42.2 µM (inactive)	68.5 µM (inactive)	33 µM (inactive)	3.18 µM (inactive)	> 95.9 µM (inactive)	–
NC(=O)CNC(=O)[C@@H]1CC(OCCC(=O)O)CN1C(=O)C1CCCN1C(=O)OCc1ccccc1 (stereo partly specified)	> 100 µM (inactive)	> 100 µM (inactive)	> 100 µM (inactive)	> 100 µM (inactive)	> 100 µM (inactive)	> 100 µM (inactive)	> 100 µM (inactive)	> 100 µM (inactive)	2.74 µM (inactive)	> 100 µM (inactive)	> 100 µM (inactive)	> 100 µM (inactive)	> 100 µM (inactive)	> 100 µM (inactive)	> 100 µM (inactive)	49.2 µM (inactive)	> 100 µM (inactive)	> 100 µM (inactive)	> 100 µM (inactive)	–
COCCN(CCNC(=O)c1cccc2c(N)c3cccc(C)c3nc12)CCOC	2 µM (inactive)	1.87 µM (inactive)	0.24 µM (active)	0.83 µM (active)	1.83 µM (inactive)	0.589 µM (active)	1 µM (active)	0.9 µM (active)	1.31 µM (inactive)	4.65 µM (inactive)	4.63 µM (inactive)	0.136 µM (active)	1.93 µM (inactive)	0.436 µM (active)	0.491 µM (active)	0.35 µM (active)	0.807 µM (active)	0.144 µM (active)	0.571 µM (active)	–
CC(C)(C)NNC(=O)CCn1[nH]c(=O)c(Cl)c(Cl)c1=O	> 100 µM (inactive)	–	–	> 100 µM (inactive)	–	> 100 µM (inactive)	–	–	> 100 µM (inactive)	–	> 100 µM (inactive)	–	> 100 µM (inactive)	> 100 µM (inactive)	> 100 µM (inactive)	> 100 µM (inactive)	> 100 µM (inactive)	> 100 µM (inactive)	> 100 µM (inactive)	> 100 µM (inactive)
CCn1c2ccccc2c2nnc(NCCCO)nc21	> 100 µM (inactive)	50.2 µM (inactive)	> 100 µM (inactive)	> 100 µM (inactive)	> 100 µM (inactive)	> 100 µM (inactive)	> 100 µM (inactive)	> 100 µM (inactive)	28 µM (inactive)	82 µM (inactive)	> 100 µM (inactive)	> 100 µM (inactive)	57.9 µM (inactive)	> 100 µM (inactive)	> 100 µM (inactive)	> 100 µM (inactive)	> 100 µM (inactive)	58.2 µM (inactive)	> 100 µM (inactive)	–
c1cc(-c2csc(-c3ccsc3)c2)cs1	52.1 µM (inactive)	> 100 µM (inactive)	> 100 µM (inactive)	63.4 µM (inactive)	> 100 µM (inactive)	> 100 µM (inactive)	58.9 µM (inactive)	> 100 µM (inactive)	> 100 µM (inactive)	> 100 µM (inactive)	> 100 µM (inactive)	20.3 µM (inactive)	> 100 µM (inactive)	> 100 µM (inactive)	> 100 µM (inactive)	> 100 µM (inactive)	> 100 µM (inactive)	> 100 µM (inactive)	> 100 µM (inactive)	–
CCC1(CC)N=C(C(F)(F)F)c2cc(C(=O)C(F)(F)F)c3ccccc3c2N1	2.73 µM (inactive)	5.83 µM (inactive)	3.44 µM (inactive)	3.99 µM (inactive)	3.58 µM (inactive)	4.57 µM (inactive)	3.3 µM (inactive)	3.44 µM (inactive)	10.2 µM (inactive)	3.75 µM (inactive)	7.8 µM (inactive)	3.77 µM (inactive)	3.15 µM (inactive)	14 µM (inactive)	4.78 µM (inactive)	8.43 µM (inactive)	3.66 µM (inactive)	2.82 µM (inactive)	3.76 µM (inactive)	–
COc1cc(C2=N/C(=C/c3cccs3)C(=O)O2)cc(OC)c1OC	> 100 µM (inactive)	> 100 µM (inactive)	> 100 µM (inactive)	> 100 µM (inactive)	> 100 µM (inactive)	> 100 µM (inactive)	> 100 µM (inactive)	> 100 µM (inactive)	> 100 µM (inactive)	> 100 µM (inactive)	> 100 µM (inactive)	> 100 µM (inactive)	> 100 µM (inactive)	> 100 µM (inactive)	> 100 µM (inactive)	> 100 µM (inactive)	> 100 µM (inactive)	> 100 µM (inactive)	> 100 µM (inactive)	–
